# Key:
# Activated CDK2/CyclinA = Activated CDK2/CyclinA (Homo sapiens, UniProt P24941); test: Activated CDK2/CyclinA kinase inhibitory activity assay; format: biochemical
# Method: Compounds of the invention were tested for kinase inhibitory activity using the following protocol.
# The reaction is allowed to proceed for 2 to 4 hours before being stopped with an excess of ortho-phosphoric acid (5 μl at 2%). γ^33P-ATP which remains unincorporated into the histone H1 is separated from phosphorylated histone H1 on a Millipore MAPH filter plate. The wells of the MAPH plate are wetted with 0.5% orthophosphoric acid, and then the results of the reaction are filtered with a Millipore vacuum filtration unit through the wells. Following filtration, the residue is washed twice with 200 μl of 0.5% orthophosphoric acid. Once the filters have dried, 20 μl of Microscint 20 scintillant is added, and then counted on a Packard Topcount for 30 seconds.
# [1] = test system: human tumour derived cell lines; test: Xenograft studies, human tumour derived cell lines implanted sub-cutaneously; format: in vivo, nude mice; conditions: dosed orally
# Text: These biomarkers include suppression of phosphorylation of substrates of the cyclin dependent kinases e.g. retinoblastoma protein.
# [2] = Determination of oral bioavailability; format: in vivo; conditions: BALB/c, mouse, plasma, mice, 5 mg/kg PO vs 1 mg/kg IV
# Method: The oral bioavailability of the compounds of formula (I) may be determined as follows.
# The test compound is administered as a solution both I.V. and orally to balb/c mice at the following dose level and dose formulations; • 1 mg/kg IV formulated in 10% DMSO/90% (2-hydroxypropyl)-β-cyclodextrin (25% w/v); and • 5 mg/kg PO formulated in 10% DMSO/20% water/70% PEG200.
# At various time points after dosing, blood samples are taken in heparinised tubes and the plasma fraction is collected for analysis. The analysis is undertaken by LC-MS/MS after protein precipitation and the samples are quantified by comparison with a standard calibration line constructed for the test compound. The area under the curve (AUC) is calculated from the plasma level vs time profile by standard methods. The oral bioavailability as a percentage is calculated from the following equation: […]
# HCT-116 cell line = test: Anti-proliferative activity, Alamar Blue assay; format: cell-based, human; conditions: for IC50: HCT-116 human colon carcinoma, 72 hours, read-out: HCT-116 cell proliferation IC50
# Method: The anti-proliferative activities of compounds of the invention can be determined by measuring the ability of the compounds to inhibition of cell growth in a number of cell lines. […] The method is based on the ability of viable cells to reduce resazurin to its fluorescent product resorufin. For each proliferation assay cells are plated onto 96 well plates and allowed to recover for 16 hours prior to the addition of inhibitor compounds for a further 72 hours. […] In the case of the non-proliferating cell assay cells are maintained at confluence for 96 hour prior to the addition of inhibitor compounds for a further 72 hours. The number of viable cells is determined by Alamar Blue assay as before. Cell lines can be obtained from the ECACC (European Collection of cell Cultures).
# GSK3-β = biological target: T1, GSK3-β (Homo sapiens, UniProt P49841); test: GSK3-B kinase inhibitory activity assay; format: biochemical; conditions: read-out: GSK3β IC50
# T1 construct: purchased Upstate Discovery
# Method: The reaction is allowed to proceed for 3 hours (GSK3-β) before being stopped with an excess of ortho-phosphoric acid (5 μl at 2%). The filtration procedure is as for Activated CDK2/CyclinA assay above.
# T1 sequence (P49841 whole entry): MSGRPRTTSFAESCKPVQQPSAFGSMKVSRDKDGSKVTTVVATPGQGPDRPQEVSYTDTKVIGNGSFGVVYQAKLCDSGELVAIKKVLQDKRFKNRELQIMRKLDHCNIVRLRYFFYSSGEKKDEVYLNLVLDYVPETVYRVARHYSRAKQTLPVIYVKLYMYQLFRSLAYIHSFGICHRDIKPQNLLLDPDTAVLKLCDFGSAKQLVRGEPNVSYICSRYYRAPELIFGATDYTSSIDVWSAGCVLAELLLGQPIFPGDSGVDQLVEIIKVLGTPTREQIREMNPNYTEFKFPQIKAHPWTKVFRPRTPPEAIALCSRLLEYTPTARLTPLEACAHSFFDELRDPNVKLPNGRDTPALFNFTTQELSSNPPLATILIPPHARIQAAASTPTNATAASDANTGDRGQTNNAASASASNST
Compound,in vitro kinase (CDK2) inhibitory activity compared to difluoro-analogue (Activated CDK2/CyclinA),tumour biomarkers (phosphorylation of CDK substrates e.g. retinoblastoma protein) ([1]; nude mice xenografts),"tumour growth in xenografts ([1]; nude mice, sub-cutaneous xenografts)",bioavailability [2],IC50 (HCT-116 cell line),anti-proliferative potency on HCT-116 compared to difluoro-analogue (HCT-116 cell line; human colon cancer HCT-116 cell line),IC50 (Activated CDK2/CyclinA),selectivity for CDK inhibition over GSK3β (Activated CDK2/CyclinA),IC50 (GSK3-β)
"CS(=O)(=O)N1CCC(NC(=O)c2n[nH]cc2NC(=O)c2c(Cl)cccc2Cl)CC1 [Example 1, 4-(2,6-dichloro-benzoylamino)-1H-pyrazole-3-carboxylic acid (1-methanesulphonyl-piperidin-4-yl)-amide]",greater in vitro kinase (CDK2) inhibitory activity,inhibition of the tumour biomarkers,inhibition of tumour growth,40 to 50%,110 nM,6-7 fold,,,
CS(=O)(=O)N1CCC(NC(=O)c2n[nH]cc2NC(=O)c2c(F)cccc2F)CC1 [Example 131 of PCT/GB2004/003179],,,,,740 nM,,2.2 nM,~6 fold,14 nM

# Reference: patent US20080139620A1, “Pyrazole Derivatives For The Inhibition Of Cdk's And Gsk's” (ASTEX THERAPEUTICS LIMITED, priority 2005, published 2008)
